The structures appear in SMILES notation.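 These data come from cells grown in 96-well plates and exposed to compound for 48 hours at five concentrations. GI50 marks 50% less growth. TGI marks complete inhibition of growth.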 Bounds are passed on as bounds.

The assay deals with MDA-MB-468 breast. The assay can be described thus: DTP human tumour cell line panel, 48 h.
Broadly, the GI50 is the concentration at which growth is held to half of that of the control. One may read the TGI as the concentration at which net growth stops. In the case of `Cc1c2ccncc2c(C)c2c1[nH]c1ccccc12`, the GI50 was 1.16 µM and the TGI was 8.74 µM.
On the same counts, the results for `N#Cc1ccc(OC(=O)Nc2ccc(Cl)c(Cl)c2)cc1` are 3.13 µM and 15.9 µM.
On the same counts, the results for `COc1ccc2c(c1)c(-c1cc(N)n3nc(-c4cn(C)c5ccc(OC)cc45)cc3n1)cn2C` are 1.87 µM and 3.66 µM.
For `O=C(Nc1ccc(Cl)c(Cl)c1)Nc1ccccc1O`, in that order: 6.26 µM and 33.6 µM.
As to `CCCCCc1ccc(S(=O)(=O)Nc2cc(-c3csc(NC(=O)CN4CCN(CCO)CC4)n3)ccc2OC)cc1`, the GI50 is 1.75 µM and the TGI came to 3.6 µM.
As for `COc1ccc2c(Oc3ccc(NC(=O)c4c(C)n(CC(C)(C)O)n(-c5ccccc5)c4=O)nc3)ccnc2c1`, the GI50 was 16.1 µM and the TGI is more than 96.6 µM.
For `CN1CCN(c2ccc(Nc3ncc4cc(C#N)c(=O)n(C5CCCC5)c4n3)cc2)CC1`, in that order: 3.46 µM and more than 100 µM.
Take `CCCCCc1ccc(S(=O)(=O)Nc2cc(-c3csc(NC(C)=O)n3)ccc2N2CCN(C)CC2)cc1`: the GI50 is 3.73 µM and the total growth inhibition concentration (TGI) turned out to be 8.42 µM.
For `COC[C@]12CC[C@@H](C)[C@H](C)[C@H]1C1=CC[C@@H]3[C@@]4(C)CCCNC(C)(C)[C@@H]4CC[C@@]3(C)[C@]1(C)CC2`, in that order: 1.71 µM and 3.43 µM.
Take `CCN(CC)c1cc2oc3cc(N)cc(=N)c-3nc2cc1C`: the GI50 is 2.59 µM and the TGI turned out to be 9.37 µM.
For `Clc1cc(Cl)cc(Nc2ccc3cc(OCCCN4CCOCC4)ccc3n2)c1`, in that order: 2.2 µM and 6.23 µM.
In the case of `COC(=O)CCC1=C(CC(=O)OC)C(C)=N/C1=C\c1[nH]c(-c2ccc[nH]2)cc1OC`, the GI50 is 3.48 µM and the total growth inhibition concentration (TGI) was 17 µM.
For `O=C(NO)c1ccc(CN(c2cnccn2)c2cnccn2)cc1`, the GI50 was 10.5 µM and the TGI was 28.4 µM.
On the same counts, the results for `NC(=S)N/N=C/c1cc(-c2cccc(N)c2)ccn1` are 1.43 µM and 4.49 µM.
For `CC1C(c2ccc3c(c2)OCO3)c2cc3c(cc2OC1N1CCOCC1)OCO3` (centres undefined), in that order: 19.6 µM and 60.3 µM.
In the case of `O=C(Nc1ccc(-n2cc(-c3ccncc3)c(-c3ccc(O)c(Cl)c3)n2)cc1)Nc1cccc(Cl)c1Cl`, the GI50 was 9.23 µM and the TGI was more than 32.5 µM.
In the case of `Cc1cc(C)n(-c2nnc3n2N=C(c2ccc(-c4ccccc4)cc2)CS3)n1`, the GI50 is 2.27 µM and the TGI was found to be 6.76 µM.
On the same counts, the results for `COc1ccc(/C=C(/c2ccccc2)[N+](=O)[O-])cc1` are 1.46 µM and 3.31 µM.
For `O=c1oc2ccc(Br)cc2c(=O)n1-c1ccc(F)cc1F`, in that order: 2.09 µM and 5.92 µM.
As for `CN1CCN(Cc2ccc(NC(=O)c3cncc(C#Cc4cnc5[nH]ncc5c4)c3)cc2C(F)(F)F)CC1`, the GI50 was 1.74 µM and the TGI worked out at 13.5 µM.
On the same counts, the results for `O=C(CCCCCCNC(=O)C(O)(O)C(F)(F)F)Nc1ncc(-c2ccccc2)s1` are 0.748 µM and 10.9 µM.
On the same counts, the results for `COc1ccc(Cc2cnc(NC(=O)c3ccc4c(c3)OCCO4)s2)cc1` are 0.0376 µM and 24.7 µM.
For `O=C(OCc1ccc2c(Cl)cc(Cl)c(O)c2n1)N1CCN(C(=O)c2cc3cc(F)ccc3[nH]2)CC1`, in that order: 0.558 µM and more than 27.9 µM.
Consider `C/C(=N\NC(=S)N1CC2CCC(CC2)C1)c1ccccn1`, for which the 50% growth inhibitory concentration (GI50) is less than 0.01 µM and the TGI was 0.104 µM.
Regarding `O=C(N/N=C/c1c(Cl)cccc1Cl)c1ccc(C(F)(F)F)nc1Nc1cccc(C(F)(F)F)c1`, the GI50 was 0.52 µM and the concentration for total growth inhibition (TGI) turned out to be 3.62 µM.
For `Cn1c(=O)c2c(ncn2CC(=O)Nc2ccc(-c3ccccc3)nn2)n(C)c1=O`, in that order: 31.4 µM and more than 100 µM.
For `O=C(N/N=C/c1ccc([N+](=O)[O-])o1)c1ccc(O)cc1`, in that order: 2.44 µM and 10.7 µM.

These data come from PubChem BioAssay (NCI).
